Measurements reported in ChEMBL document CHEMBL3639064, “Piperazine compound capable of inhibiting prostaglandin D synthase” (2014).
pIC50: −log10 of the molar value.

biological target: Hematopoietic prostaglandin D synthase (Homo sapiens, UniProt O60760); test: Inhibition Assay: The test was carried out according to the method of Urade, Y. et al. (J. Biol. Chem., 262, 3820-3825, (1987)). More specifically, the reaction mixture (49 uL) containing 100 mM Tris-HCl (pH 8.0), 1 mM reduced glutathione, 0.1 mg/mL gamma-globulin, and human H-PGDS (q.s.), and a compound (final concentration: 0.01-100 uM) was preincubated at 25 C. for 5 minutes. Note that a DMSO solution (final concentration: 1%) was added to the solvent control group. Subsequently, 1 uL of [14C] prostaglandin H2 (final concentration: 10 uM) was added to start the reaction. One minute after the start of the reaction, 250 uL of a reaction stopper solution (diethylether/methanol/1 M citric acid (30/4/1) at a temperature of -20 C. was added to stop the reaction. After the reaction was stopped, 50 uL of the upper layer portion (organic solvent phase) was applied to a TLC plate and developed at -20 C. for 45 minutes.
Sequence (O60760 whole entry): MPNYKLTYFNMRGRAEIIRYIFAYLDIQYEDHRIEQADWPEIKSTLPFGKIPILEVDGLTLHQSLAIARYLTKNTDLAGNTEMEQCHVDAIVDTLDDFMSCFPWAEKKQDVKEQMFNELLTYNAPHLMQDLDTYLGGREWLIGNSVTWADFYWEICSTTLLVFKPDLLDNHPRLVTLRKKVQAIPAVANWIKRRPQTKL

Compared with `Cn1cccc1C(=O)N1CCN(C(=O)Nc2ccc(N3CCC(CCn4ccnn4)CC3)cc2)CC1`, `Cn1cccc1C(=O)N1CCN(C(=O)Nc2ccc(N3CCC(CCCn4ccnn4)CC3)cc2)CC1` is 0.28 log units higher in pIC50: 7.15 for the first, 7.43 for the second.

`Cn1cccc1C(=O)N1CCN(C(=O)Nc2ccc(N3CCC(CN4CCOCC4)CC3)cc2)CC1` and `Cn1cccc1C(=O)N1CCN(C(=O)Nc2ccc(N3CCC(CCN4CCOCC4)CC3)cc2)CC1` are within 0.2 log units of each other in pIC50: 7.27 for the first, 7.37 for the second.

Compared with `Cn1cccc1C(=O)N1CCN(C(=O)Nc2ccc(N3CCC(CCn4cncn4)C3)cc2)CC1` (stereo unspecified), `Cn1cccc1C(=O)N1CCN(C(=O)Nc2ccc(N3CCC(CCn4cccn4)CC3)cc2)CC1` is 0.23 log units higher in pIC50: 7.17 for the first, 7.40 for the second. The second is the more potent here.

`Cc1nc(C)n(CCC2CCN(c3ccc(NC(=O)N4CCN(C(=O)c5cccn5C)CC4)cc3)CC2)n1` and `CN1CCN(C(=O)C2CCN(c3ccc(NC(=O)N4CCN(C(=O)c5cccn5C)CC4)cc3)CC2)CC1` are within 0.2 log units of each other in pIC50: 7.07 for the first, 7.22 for the second.

Compared with `Cn1cccc1C(=O)N1CCN(C(=O)Nc2ccc(N3CCC(C(=O)N4CCCCC4)CC3)cc2)CC1`, `Cn1cccc1C(=O)N1CCN(C(=O)Nc2ccc(N3CCC(C(=O)NCCN4CCOCC4)CC3)cc2)CC1` is 0.26 log units lower in pIC50: 7.49 for the first, 7.23 for the second.

For `Cn1cccc1C(=O)N1CCN(C(=O)Nc2ccc(N3CCC(C(=O)NCc4cccnc4)CC3)cc2)CC1`, the pIC50 was 7.22.
